This passage reports MIC and pKa results from ChEMBL document CHEMBL4184279, “Synthesis, antimicrobial activity and acid dissociation constants of methyl 5,5-diphenyl-1-(thiazol-2-yl)pyrrolidine-2-carboxylate derivatives” (Bioorg Med Chem Lett, 2018).

The MIC is the lowest concentration that inhibits growth of the organism. A low value points to greater potency.

For one data set, the system named is Staphylococcus aureus. Put plainly: Antibacterial activity against Staphylococcus aureus ATCC 25925. The data set is classed as functional.
Another data set deals with Bacillus spizizenii. Description: Antibacterial activity against Bacillus subtilis ATCC 6633. The data set is classed as functional.
A further data set deals with Aeromonas hydrophila. Description: Antibacterial activity against Aeromonas hydrophila ATCC 95080. The format is functional.
A further data set has as its system Escherichia coli. Put plainly: Antibacterial activity against Escherichia coli. The data set is classed as functional.
The test system of the next data set is Acinetobacter baumannii. Description: Antibacterial activity against Acinetobacter baumannii ATCC 02026. The data set is classed as functional.
The next data set deals with Nakaseomyces glabratus. Description: Antifungal activity against Candida glabrata ATCC 90030 after 48 hrs by microdilution broth method. The data set is classed as functional. Conditions: ATCC 90030, 48 h. (In general: In broth dilution the organism is exposed to a series of concentrations in liquid medium.)
Another data set concerns Candida tropicalis. Description: Antifungal activity against Candida tropicalis ATCC 750 after 48 hrs by microdilution broth method. The data set is classed as functional. Conditions: ATCC 750, 48 h.
Another data set relates to Candida parapsilosis. Put plainly: Antifungal activity against Candida parapsilosis ATCC 22019 after 48 hrs by microdilution broth method. The format is functional. Conditions: Lodderomyces parapsilosis, ATCC 22019, 48 h.
Data set [1] concerns Mycobacterium tuberculosis. Description: Antimycobacterial activity against Mycobacterium tuberculosis H37Rv after 7 days by REMA. The data set is classed as functional. Conditions: 168 h.
A short description of data set [2]: Acid dissociation constant, pKa for NH group of the compound in DMSO-water mixture at 25 +/- 0.1 degC by potentiometric method. The data set is classed as physicochemical.
Data set [3] in a line: Acid dissociation constant, pKa for SH group of the compound in DMSO-water mixture at 25 +/- 0.1 degC by potentiometric method. The format is physicochemical.
A short description of data set [4]: Acid dissociation constant, pKa for OH group of the compound in DMSO-water mixture at 25 +/- 0.1 degC by potentiometric method. The data set is classed as physicochemical.

≈ marks a conversion by molar mass, not a printed value.

In the case of `COC(=O)[C@H]1C[C@@H](C(=O)OC)C(c2ccccc2)(c2ccccc2)N1c1nc(-c2ccccc2)c(C(=O)c2ccccc2)s1`, the MIC in the data set on Staphylococcus aureus stood at 125 µg/mL (≈ 207 µM); against Bacillus spizizenii it was 125 µg/mL (≈ 207 µM); with Aeromonas hydrophila it was 250 µg/mL (≈ 415 µM); against Escherichia coli, 125 µg/mL (≈ 207 µM); against Acinetobacter baumannii it was 250 µg/mL (≈ 415 µM); in the data set on Nakaseomyces glabratus, 31.2 µg/mL (≈ 51.8 µM). For the same compound, the results for the MIC (in the data set with Candida tropicalis; against Candida parapsilosis; in data set [1]) were 62.5 µg/mL (≈ 104 µM), 62.5 µg/mL (≈ 104 µM) and 15.6 µg/mL (≈ 25.9 µM), respectively. The pKa was 2.99 in [2], 6.58 in data set [3] and 9.67 in data set [4].
With `COC(=O)[C@H]1C[C@@H](C(=O)OC)C(c2ccccc2)(c2ccccc2)N1c1nc(-c2ccccc2)c(C(=O)c2ccc(C#N)cc2)s1`, the MIC was determined as 125 µg/mL (≈ 199 µM) with Staphylococcus aureus; 250 µg/mL (≈ 398 µM) with Bacillus spizizenii; 250 µg/mL (≈ 398 µM) against Aeromonas hydrophila; 125 µg/mL (≈ 199 µM) in the data set on Escherichia coli; 250 µg/mL (≈ 398 µM) against Acinetobacter baumannii; 31.2 µg/mL (≈ 49.8 µM) with Nakaseomyces glabratus. Moreover, the values for the MIC (against Candida tropicalis; against Candida parapsilosis; in [1]) were 62.5 µg/mL (≈ 99.6 µM), 62.5 µg/mL (≈ 99.6 µM) and 15.6 µg/mL (≈ 24.9 µM), respectively. Moreover, the pKa in data set [2] was 3.78; in data set [3], 5.61; in data set [4] it was 8.67.
For the compound `COC(=O)[C@H]1C[C@@H](C(=O)OC)C(c2ccccc2)(c2ccccc2)N1c1nc(-c2ccccc2)c(C(=O)c2ccc(OC)cc2)s1`, the MIC against Staphylococcus aureus amounted to 250 µg/mL (≈ 395 µM); against Bacillus spizizenii it was 250 µg/mL (≈ 395 µM); in the data set with Aeromonas hydrophila it was 125 µg/mL (≈ 198 µM); in the data set with Escherichia coli it was 250 µg/mL (≈ 395 µM); against Acinetobacter baumannii, 250 µg/mL (≈ 395 µM); in the data set with Nakaseomyces glabratus, 62.5 µg/mL (≈ 98.8 µM). Moreover, the MIC with Candida tropicalis stood at 62.5 µg/mL (≈ 98.8 µM); against Candida parapsilosis it was 125 µg/mL (≈ 198 µM); in [1] it was 15.6 µg/mL (≈ 24.7 µM). The results for the pKa in [2], in data set [3] and in data set [4] were 2.46, 6.31 and 10, respectively.
With `COC(=O)[C@H]1C[C@@H](C(=O)OC)C(c2ccccc2)(c2ccccc2)N1c1nc(-c2ccccc2)c(C(=O)c2ccc(Br)cc2)s1`, the MIC in the data set with Staphylococcus aureus was found to be 250 µg/mL (≈ 367 µM); against Bacillus spizizenii, 250 µg/mL (≈ 367 µM); against Aeromonas hydrophila, 250 µg/mL (≈ 367 µM); in the data set with Escherichia coli, 250 µg/mL (≈ 367 µM); in the data set with Acinetobacter baumannii, 125 µg/mL (≈ 183 µM); in the data set with Nakaseomyces glabratus it was 62.5 µg/mL (≈ 91.7 µM). The results for the MIC (in the data set on Candida tropicalis; against Candida parapsilosis; in data set [1]) were 62.5 µg/mL (≈ 91.7 µM), 31.2 µg/mL (≈ 45.8 µM) and 7.81 µg/mL (≈ 11.5 µM), respectively. For the same compound, the pKa in [2] worked out at 3.11; in data set [3] it was 5.99; in data set [4] it was 9.91.
